Source: a melting point compilation (Tetko et al.; mined from patent text by program, amines drawn as free bases though some values may be those of a salt)

melting point	Structure (SMILES)
119 to 124 °C	CN(C)c1ccc(N=Nc2ccccc2C(=O)NCCN)cc1
280 °C	Nc1nc(-n2cc(C(=O)O)c(=O)c3cc(F)c(F)c(Cl)c32)c(F)cc1Cl
139 to 140 °C	CCNC(=O)c1c(Cl)cccc1NC(C)(C)C
205 to 207 °C	COc1ccc(N2CCOCC2)c2sc(-c3nc4c([nH]3)CCN(C(=O)c3ccc(F)cc3)CC4)nc12
255 to 256 °C	O=C(C=Cc1cc(O)c(O)c([N+](=O)[O-])c1)c1ccc([N+](=O)[O-])cc1
206 °C	COc1cc(N)c(Cl)cc1C(=O)N[C@H]1CCN(CCNC(=O)N(C)C)C[C@H]1OC (relative stereo)
212 to 214 °C	COc1ccc2c(c1)Cc1c(-c3cccs3)n[nH]c1-2
176 to 177 °C	CON=Cc1cc(-n2c(=O)cc(C(F)(F)F)[nH]c2=O)c(F)cc1Cl
214 to 216 °C	O=C(Nc1cc(-c2ccnc3c(C(=O)c4cccs4)cnn23)ccc1F)c1ccccc1F
65 to 67 °C	CCCCCCCCCCCCCCCCCCCCC(CCCCCCCCCCCCCC)C(=O)O (centres undefined)
57 °C	COC(CCCCC(N)=O)OC
235 to 238 °C	CCc1c2nc(-c3cc(S(C)(=O)=O)ccc3OCC(C)C)[nH]c(=O)c2nn1Cc1ccccn1
164 to 167 °C	CCCC1=C(C(=O)OCC)C(c2cc(F)ccc2OC)c2c[nH]nc2N1 (centres undefined)
178 to 191 °C	c1nc(Nc2ccc3[nH]ccc3c2)c2sc(-c3ccc(CNCCN4CCNCC4)cc3)cc2n1
173 °C	CC1=CC(=O)C(C)=C(CCC(C)(C)COc2ccc(CC3SC(=O)NC3=O)cc2)C1=O (centres undefined)
218 to 220 °C	O=C1NC(=O)C(=Cc2ccc(OC3CCN(c4ccccn4)CC3)cc2)S1
86 to 87 °C	COC(=O)c1ccc(C(F)(F)F)cc1NC(C)=O
192 to 193 °C	CNc1coc2cc(NS(C)(=O)=O)c(Oc3ccccc3)cc2c1=O
213 to 215 °C	O=C(O)C1=C(Sc2ccccc2)CC2CC(=O)C12 (centres undefined)
193 to 195 °C	O=C1COC(c2ccccc2)c2ccccc2N1 (centres undefined)
149 to 151 °C	CCCc1c(OCCCOc2ccc(-c3csc(=S)[nH]3)c(OC)c2CCC)ccc2c1OC(C(=O)O)CC2 (centres undefined)
72 to 84 °C	C=CCC(C)(C)CNc1cc(N2CCNCC2)nc(NCC(C)(C)CC=C)n1
226 to 230 °C	CCCn1nc(C(C)C)c(C(=O)O)c1Cc1ccc(-c2ccccc2C(=O)O)cc1
89 to 90 °C	COCc1cccc(COC)c1SSc1c(COC)cccc1COC
270 to 272 °C	Cc1ccc(-c2cc3ccc(C(=O)O)cc3o2)cc1
119 to 122 °C	CC(C)(C)OC(=O)N[C@@H](C(=O)N1CCC[C@H]1C(=O)NC1CCc2n[nH]cc2C1)C(c1ccccc1)c1ccccc1 (some centres undefined)

melting point	Structure (SMILES)
70 to 73 °C	CCOC(=O)C(=O)Nc1sc(C(=O)OCC)c(CC)c1[N+](=O)[O-]
110 °C	COc1ccc2c(c1)-c1c(cc(C)n1C[C@@H](C)O)C2
43 to 45 °C	CCOC(=O)c1cc(C#N)c(C)nc1Cl
140 to 143 °C	O=C(NCCNCc1cc2cc(O)ccc2o1)C12CC3CC(CC(C3)C1)C2
62 to 63 °C	CCCCCCCC(=O)NCCCCCO
80 to 82 °C	CCOC(=O)c1cc2cc([Si](C)(C)C)ccc2n1Cc1cccc(F)c1
103 to 106 °C	CCCCCCCCCCCCc1nnn(CC(=O)Nc2ccc(F)cc2F)n1
97 to 98.4 °C	CC(C)[C@@H](NS(=O)(=O)N1CCC(Oc2ccc(Cl)cn2)CC1)C(=O)NO
296 to 298 °C	COc1ccc(Cc2ccc(-c3cnn4c(O)ncnc34)cc2)cc1
155 to 165 °C	NC(=S)NN=C(COC(=O)Nc1ccccc1)c1ccccc1
209 to 215 °C	N#CN(c1ccccc1)c1nc(N(C#N)c2ccccc2)nc(N(C#N)c2ccccc2)n1
78 to 79 °C	COc1ccc(Br)c2nc(SCc3ccccc3)nn12
86.5 to 88 °C	CC(=O)OCc1ccccc1C(=O)C(N)=O
157 to 158 °C	CC(C)(C)OC(=O)Nc1ccc(C#Cc2ccc(F)cc2)cc1[N+](=O)[O-]
68 to 70 °C	O=[N+]([O-])c1cccc(CBr)c1CBr
155 to 157 °C	Cc1ccc(C(=O)c2c(Br)cc(CC(=O)O)n2C)cc1
53 to 59 °C	CC(C)C[C@H](NS(=O)(=O)c1ccccc1)C(=O)NC(C)(C)C(=O)c1c(-c2ccccc2)c1=O
107 to 110 °C	COc1ccc2cc(CC(O)C(C)=O)ccc2c1 (centres undefined)
165 °C	CS(=O)(=O)C(=C1CN(C(c2ccccc2)c2ccccc2)C1)c1ccc(Cl)cc1Cl
247 to 249 °C	CN(C)C1CCN(c2nc3c(cc2F)c(=O)c(C(=O)O)cn3CCF)C1 (centres undefined)
120 to 121 °C	COc1ccc2c(c1)C(=NO)CCO2
147 to 148 °C	CCc1cnc(CSc2cnc(NC(C)=O)s2)o1
68 to 69 °C	COC(=O)c1ccc(OCCCCCCc2cccc(OCc3ccccc3)c2OCc2ccccc2)c(Cl)c1
90 to 92 °C	COc1c(CC(=O)O)cccc1Oc1ccccc1C
209 to 210 °C	COc1cc(C2=NNC(=O)CC2)ccc1O
187 to 188 °C	Cc1ccc(N2CCN(Cc3n[nH]c4c(Cl)cccc34)CC2)cc1

melting point	Structure (SMILES)
204 to 206 °C	COc1cc2cc(C3=NNC(=O)CC3C)sc2cc1OC (centres undefined)
252 to 253 °C	O=C1CCC2=C(CCc3c(Cl)cccc32)N1
133 to 135 °C	CS(=O)(=O)c1ccc(-c2cnn(CC(F)(F)F)c(=O)c2Oc2cc(C(F)(F)F)ccc2F)cc1
235 to 236 °C	CCSc1cccc2c1C(=O)c1cccc(SCC)c1C2=O
149 to 150 °C	COc1ccc(C(=O)N2c3ccccc3C(n3c4ccccc4c4ccccc43)CC2CCCCCN2CCC(c3cccc(C(F)(F)F)c3)CC2)cc1OC (centres undefined)
171 to 173 °C	COc1cc(O)c2c(=O)c(OC)c(-c3ccc(O)c(OC)c3)oc2c1
137 to 139 °C	Clc1cc(Nc2ccccc2)c(Cl)nn1
125 to 128 °C	COc1ccc(COc2ccc3cc(C(C)C(=O)O)ccc3c2)cc1OC1CC2CCC1C2 (centres undefined)
144 to 145 °C	CN(C)CC#Cc1ccc2c(Nc3ccc(Cl)cc3Cl)c(C#N)cnc2c1
57 to 58 °C	OCCCc1cnoc1-c1ccc(F)c(Br)c1
126 to 128 °C	CC(C)(C)C=CC1=C(O)C(=O)c2ccccc2C1=O
158 °C	Oc1ccc(Oc2cncnc2)cc1
91 to 93 °C	CC(=O)NC(=O)C(C)SC(C)=O (centres undefined)
169 to 174 °C	CNC(=O)c1ccccc1Nc1nc(Nc2ccc3c(n2)CCCCS3)ncc1Cl
187 °C	CN(C(=O)OC(C)(C)C)[C@H](Cc1ccc(Cl)c(Cl)c1)[C@H](O)CC(=O)N[C@@H]1CCCCNC1=O
188 to 189 °C	O=C(CCl)Nc1ccc2c(c1NC(=O)c1cccc(Cl)c1)C(=O)c1ccccc1C2=O
107 to 108 °C	COC(=O)C(=CNc1ccc(F)c(F)c1OCC(C)O)C(=O)OC (centres undefined)
99 to 100 °C	Oc1ccc2c(c1O)OCC(c1cccc(C(F)(F)F)c1)C2 (centres undefined)
45 to 47 °C	CCc1c(C(=O)OC)c(C(F)(F)F)nc(C(F)(F)F)c1C(=O)OC
80 to 83 °C	C=CC(=O)OCCNC(=O)CCc1cc(-n2nc3ccccc3n2)c(O)c(C(C)(C)C)c1
224 to 228 °C	Clc1nnc(Cl)c2cc3ccccc3cc12
110 °C	CC(=O)Nc1ccc(OCCOCCOc2ncc(Cl)cn2)cc1
190 to 199 °C	CC(C)C/C=C(\C[C@H](N)C(=O)O)C(=O)O
193 to 195 °C	Cc1ccccc1-c1cn(C)cc(-c2cccc(C(F)(F)F)c2)c1=S
72 to 73 °C	O=[N+]([O-])c1cccc(OC2CCCCO2)c1O (centres undefined)
187 °C	Cc1cc(S(=O)(=O)Nc2cc(F)c(Oc3cnc4ccccc4c3)c(Cl)c2)c(Cl)cc1Cl

melting point	Structure (SMILES)
127 to 130 °C	Cc1ccc(S(=O)(=O)N2CCC[C@H]2C(=O)N[C@@H](Cc2ccccc2)C(=O)NOCc2ccccc2)cc1
> 250 °C	O=C(Nc1cc[nH]c(=O)n1)OCc1ccccc1
151 to 152 °C	NC(=O)CCNC(=O)C1CCCN1C(=O)OCc1ccccc1 (centres undefined)
152 to 156 °C	CCN1CC(SCC2CC2)(C(F)(F)F)c2cc(Cl)ccc2NC1=O (centres undefined)
99 to 100 °C	Oc1cccc2csnc12
68.5 to 69.5 °C	COc1cc(C(C)O)c(F)cc1Cl (centres undefined)
267 to 268 °C	Cn1c(=O)c2nc(C(=O)O)cn2c2ccccc21
163 to 166 °C	O=C1c2cc(O)ccc2OCC1Cc1cccnc1 (centres undefined)
59 °C	O=C(c1ccccc1)c1ccc(F)c([N+](=O)[O-])c1
194 to 195 °C	N#Cc1nc(-c2c(Cl)cc(C(F)(F)F)cc2Cl)[nH]c1C#N
83 to 86 °C	c1ccc(CN2CCN(Cc3ccccc3)[C@@H](CCc3ccccn3)C2)cc1
270 to 271 °C	O=C(O)COc1ccc2c(=O)c3c(Cl)cccc3oc2c1Cl
172 °C	NC(=O)COc1ccc2c(-c3ccccc3F)noc2c1Cl
178 to 180 °C	Cc1ccc(F)cc1C(=O)Nc1ccc(C(=O)N2CCCCc3sccc32)cn1
128 to 130 °C	Cc1sc(N)c(C(=O)c2ccc(Br)s2)c1C
165 to 167 °C	C=Cc1cc(CNC(=O)NCc2ccc(C(C)(C)C)cc2)cc(Cl)c1NS(C)(=O)=O
52.7 °C	CCCc1cnc(-c2ccc(F)cc2)nc1
> 300 °C	O=[N+]([O-])c1cc2nc(Cl)c(Cl)nc2cc1Sc1ncc[nH]1
219 to 222 °C	Cc1c(C(=O)O)nc2ccc3c(c2c1-c1ccc2c(c1)OCO2)OCO3
235 to 236 °C	CCCc1nn(C)c2c(=O)[nH]c(-c3cc(S(C)(=O)=O)ccc3OCC)nc12
104 to 106 °C	ON=C(Cl)c1ccc(Cl)c(Cl)c1
128 to 129 °C	C[C@@H]1Nc2ccc(-c3cc(F)cc(C#N)c3)cc2[C@](C)(c2ccccc2)O1
104 to 108 °C	CN1CCC(CO)(OCc2ccccc2F)CC1

Structure (SMILES)	melting point
c1ccc(CC23CCN(CC2)CC3)cc1	48 °C
CS(=O)(=O)NCCn1nnnc1S	131 to 132 °C
CC1(C)C(=O)N(c2ccc(C#N)c(C(F)(F)F)c2)C(=O)N1CCCCOCc1ccccc1	75 to 76 °C
